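Briefly, cells in 96-well plates were exposed to five compound concentrations for 48 h, and endpoints were estimated by linear interpolation. At the GI50, growth is halved.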 The source made the active and inactive calls. Cut-off read from the data, not from the text of the source: active = GI50 up to about 1.1 µM and inactive = higher.
Tests used:
Experiment in all cases: NCI tumour cell line growth inhibition, 48 h
[1] = test system: EKVX
[2] = test system: OVCAR-5
[3] = test system: TK-10
[4] = test system: SK-OV-3
[5] = test system: CCRF-CEM
[6] = test system: NCI-H23
[7] = test system: SF-539
[8] = test system: SK-MEL-2
[9] = test system: HT-29
[10] = test system: HCT-116
[11] = test system: SK-MEL-28
[12] = test system: OVCAR-8
[13] = test system: HOP-92
[14] = test system: HL-60
[15] = test system: SK-MEL-5
[16] = test system: CAKI-1
[17] = test system: DU-145
[18] = test system: MDA-N
[19] = test system: PC-3
[20] = test system: T47D

Measured: GI50

O=c1[nH]c(=O)n([C@@H]2C[C@H](CO)[C@H](O)C2)cc1/C=C/Br
inactive: [1] > 100 µM | [2] > 100 µM | [3] > 100 µM | [4] > 100 µM | [5] > 100 µM | [6] > 100 µM | [7] > 100 µM | [8] > 100 µM | [9] > 100 µM | [10] > 100 µM | [11] > 100 µM | [12] > 100 µM | [13] > 100 µM | [14] > 100 µM | [15] > 100 µM | [16] > 100 µM

Oc1c2c(nc3cc4c(cc13)OCO4)-c1ccccc1CCC2
inactive: [1] > 50 µM | [2] > 50 µM | [3] > 50 µM | [4] > 50 µM | [5] > 50 µM | [6] > 50 µM | [17] > 50 µM | [7] > 50 µM | [9] 34.4 µM | [10] 28.1 µM | [11] > 50 µM | [18] 18.9 µM | [12] 48.5 µM | [13] > 50 µM | [15] 45.6 µM | [16] > 50 µM | [19] > 50 µM

COc1cc2c(cc1OC)[C@@H]([C@H](O)c1ccccc1)NCC2
inactive: [1] > 97.7 µM | [2] > 100 µM | [3] > 100 µM | [4] > 82.6 µM | [5] > 100 µM | [6] > 100 µM | [7] > 100 µM | [8] > 100 µM | [9] > 100 µM | [10] > 100 µM | [11] > 100 µM | [12] > 100 µM | [13] > 74.1 µM | [14] > 100 µM | [15] > 100 µM | [16] > 84.9 µM

CCN(CC)c1ccc2cc(-c3nnc(-c4ccccc4)[nH]3)c(=O)oc2c1
inactive: [1] 22.8 µM | [2] 28.2 µM | [4] 19.8 µM | [5] 39.7 µM | [6] 6.49 µM | [17] 14.8 µM | [7] 13.8 µM | [8] 33 µM | [9] 33 µM | [10] 35.8 µM | [11] > 100 µM | [18] > 100 µM | [12] 3.78 µM | [14] > 100 µM | [15] > 100 µM | [16] 26.9 µM | [19] 14.9 µM

Cn1c(C(C#N)c2cc(Cl)ncn2)nc2ccccc21 (stereo not given)
inactive: [1] > 100 µM | [2] > 100 µM | [3] > 100 µM | [4] > 100 µM | [6] > 100 µM | [17] > 100 µM | [7] > 100 µM | [9] > 100 µM | [10] > 100 µM | [11] > 100 µM | [18] > 100 µM | [12] > 100 µM | [13] > 100 µM | [20] > 100 µM | [15] > 100 µM | [16] > 100 µM

N#CC(c1ccccc1)c1cccc2ccccc12 (stereo not given)
inactive: [1] 37.8 µM | [2] 85.1 µM | [3] 42.4 µM | [6] 42.1 µM | [17] 50.5 µM | [7] 30.6 µM | [8] 25.6 µM | [9] 43.2 µM | [10] 65 µM | [11] 69.7 µM | [12] 27.4 µM | [20] 38.5 µM | [14] 21.1 µM | [15] 18.2 µM | [16] 17.4 µM | [19] 22.5 µM

O=C1Nc2ccccc2N=CC1NC(=O)C(c1ccccc1)c1ccccc1 (stereo not given)
inactive: [1] > 100 µM | [2] > 100 µM | [3] > 100 µM | [4] > 100 µM | [5] > 100 µM | [6] > 100 µM | [7] > 100 µM | [8] > 100 µM | [9] > 100 µM | [10] > 100 µM | [11] > 100 µM | [12] > 100 µM | [13] 32.5 µM | [14] > 100 µM | [15] > 100 µM | [16] > 100 µM

COc1ccc(/C(Cl)=C(\C=O)c2ccc(OC)c(OC)c2)cc1OC
inactive: [1] > 100 µM | [2] > 45.6 µM | [3] > 100 µM | [4] > 100 µM | [5] > 83.9 µM | [6] 76.6 µM | [17] > 100 µM | [7] 94.6 µM | [8] 94.4 µM | [9] 41.6 µM | [10] > 91.4 µM | [11] > 94.6 µM | [18] > 100 µM | [12] > 94.6 µM | [13] > 100 µM | [14] 22.2 µM | [15] > 81.7 µM | [16] > 100 µM | [19] > 100 µM

COc1ccc(C(=O)Nc2ccc(S(=O)(=O)NCC(=O)O)cc2)cc1
inactive: [1] > 100 µM | [2] > 100 µM | [3] > 100 µM | [4] > 100 µM | [5] > 100 µM | [6] > 100 µM | [7] > 100 µM | [8] > 100 µM | [9] > 100 µM | [11] > 100 µM | [12] > 100 µM | [13] > 100 µM | [14] > 100 µM | [15] > 100 µM | [16] > 100 µM

O=c1cc(-c2ccccc2)nc(/C=C(\O)c2ccncc2)n1-c1ccccc1
inactive: [1] > 100 µM | [2] > 100 µM | [3] > 100 µM | [4] > 100 µM | [5] > 100 µM | [6] > 100 µM | [7] > 100 µM | [8] > 100 µM | [9] > 100 µM | [10] > 100 µM | [11] > 100 µM | [12] > 100 µM | [13] > 100 µM | [14] > 100 µM | [15] > 100 µM | [16] > 100 µM

NC1=NN(c2ccccc2)C(=O)C1C(=O)CCC(=O)Nc1cccc(Cl)c1 (stereo not given)
inactive: [1] > 100 µM | [2] > 100 µM | [3] > 100 µM | [4] > 100 µM | [5] > 100 µM | [6] > 100 µM | [7] > 100 µM | [8] > 100 µM | [9] > 100 µM | [10] > 100 µM | [11] > 100 µM | [12] > 100 µM | [13] > 100 µM | [14] > 100 µM | [15] > 100 µM | [16] > 100 µM

O=C(Nn1c(-c2ccccc2)nc2ccccc2c1=O)c1ccccn1
inactive: [1] > 100 µM | [3] > 100 µM | [4] > 100 µM | [5] 41.5 µM | [6] > 100 µM | [17] > 100 µM | [7] 43.7 µM | [9] 65.3 µM | [10] 57.4 µM | [11] > 100 µM | [12] 64.4 µM | [13] 78 µM | [20] > 100 µM | [14] 71.4 µM | [15] 37.7 µM | [19] > 100 µM

CCC[C@H]1C(=O)N=C(N)N1C(=O)OCc1ccccc1
inactive: [1] > 100 µM | [2] > 100 µM | [3] > 100 µM | [6] > 100 µM | [7] > 100 µM | [8] > 100 µM | [9] > 100 µM | [10] > 100 µM | [11] > 100 µM | [18] > 100 µM | [12] > 100 µM | [14] > 100 µM | [15] > 100 µM | [16] > 100 µM | [19] > 100 µM

O=C1C(Br)=CC2(C=C1Br)CCNC1=C2C(=O)c2cccnc2C1=O
inactive: [1] 15 µM | [2] 17.4 µM | [3] 19.8 µM | [4] 16.9 µM | [5] 6.22 µM | [6] 4.07 µM | [17] 11.4 µM | [7] 8.99 µM | [8] 2.69 µM | [9] 18.2 µM | [10] 13.1 µM | [11] 14.2 µM | [18] 1.77 µM | [12] 15.8 µM | [13] 16 µM | [14] 3.49 µM | [15] 3.77 µM | [16] 17.4 µM | [19] 13.4 µM

CCOc1ccc(/C(Cl)=C(\C=O)c2ccc(OC)c(OC)c2)cc1OCC
inactive: [1] 65.2 µM | [2] > 100 µM | [3] 80.9 µM | [4] > 100 µM | [5] 12.7 µM | [6] 23.3 µM | [7] 48.9 µM | [8] > 100 µM | [9] 41.1 µM | [10] 33.8 µM | [11] > 100 µM | [12] 46.8 µM | [13] 58.2 µM | [14] 21.7 µM | [15] 22.5 µM | [16] > 100 µM

O=C(O)CN1C=C(C(=O)c2cc3ccccc3n2S(=O)(=O)c2ccccc2)CCC1
inactive: [1] 54.8 µM | [2] > 100 µM | [3] > 100 µM | [4] > 10 µM | [5] 30.9 µM | [6] 50.6 µM | [17] > 100 µM | [7] 39.7 µM | [8] 87.5 µM | [9] 50 µM | [10] 57.3 µM | [11] > 100 µM | [12] 64.6 µM | [13] 46.9 µM | [20] 28.6 µM | [14] 32.2 µM | [15] 24.9 µM | [16] > 100 µM | [19] 50.4 µM

From ChEMBL document CHEMBL1201862, “PubChem BioAssay data set” (2004)
